Legend:
[1] = target: T1, 5-hydroxytryptamine receptor 6 (Homo sapiens, UniProt P50406); assay: Binding affinity against human 5-hydroxytryptamine 6 receptor
[2] = target: D(2) dopamine receptor (Homo sapiens, UniProt P14416); assay: Binding affinity to human cloned Dopamine receptor D2 in CHO cells using [125I]- iodosulpride as radioligand; type: cell-based
[3] = target: 5-hydroxytryptamine receptor 2A (Homo sapiens, UniProt P28223); assay: Binding affinity to human cloned 5-hydroxytryptamine 2A receptor in HEK 293 cells using [3H]- ketanserin as radioligand; type: cell-based, HEK293
[4] = target: 5-hydroxytryptamine receptor 1D (Homo sapiens, UniProt P28221); assay: Binding affinity to human cloned 5-hydroxytryptamine 1D receptor in CHO cells using [3H]5-HT as radioligand; type: cell-based
[5] = target: T2, 5-hydroxytryptamine receptor 1A (Homo sapiens, UniProt P08908); assay: Binding affinity to human cloned 5-hydroxytryptamine 1A receptor in HEK 293 cells using [3H]-8-OH- DPAT as radioligand; type: cell-based, HEK293
T2 sequence (P08908 whole entry): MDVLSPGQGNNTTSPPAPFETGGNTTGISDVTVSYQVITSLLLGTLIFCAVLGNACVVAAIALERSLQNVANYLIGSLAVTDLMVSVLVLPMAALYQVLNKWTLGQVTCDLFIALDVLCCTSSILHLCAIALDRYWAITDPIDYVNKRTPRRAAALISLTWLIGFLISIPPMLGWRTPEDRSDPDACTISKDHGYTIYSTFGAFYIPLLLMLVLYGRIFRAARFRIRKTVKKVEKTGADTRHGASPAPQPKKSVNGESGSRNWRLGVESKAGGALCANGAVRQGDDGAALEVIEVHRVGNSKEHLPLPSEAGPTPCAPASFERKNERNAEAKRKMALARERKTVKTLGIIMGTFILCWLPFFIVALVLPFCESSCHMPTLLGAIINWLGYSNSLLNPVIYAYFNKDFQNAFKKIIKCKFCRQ

[6] = target: 5-hydroxytryptamine receptor 7 (Homo sapiens, UniProt P34969); assay: Binding affinity to human cloned 5-hydroxytryptamine 7 receptor in HEK 293 cells using [3H]-5-CT as radioligand; type: cell-based, HEK293
[7] = target: T3, 5-hydroxytryptamine receptor 2C (Homo sapiens, UniProt P28335); assay: Binding affinity to human cloned 5-hydroxytryptamine 2C receptor in HEK 293 cells using [3H]- mesulergine as radioligand; type: cell-based, HEK293
T3 sequence (P28335 whole entry): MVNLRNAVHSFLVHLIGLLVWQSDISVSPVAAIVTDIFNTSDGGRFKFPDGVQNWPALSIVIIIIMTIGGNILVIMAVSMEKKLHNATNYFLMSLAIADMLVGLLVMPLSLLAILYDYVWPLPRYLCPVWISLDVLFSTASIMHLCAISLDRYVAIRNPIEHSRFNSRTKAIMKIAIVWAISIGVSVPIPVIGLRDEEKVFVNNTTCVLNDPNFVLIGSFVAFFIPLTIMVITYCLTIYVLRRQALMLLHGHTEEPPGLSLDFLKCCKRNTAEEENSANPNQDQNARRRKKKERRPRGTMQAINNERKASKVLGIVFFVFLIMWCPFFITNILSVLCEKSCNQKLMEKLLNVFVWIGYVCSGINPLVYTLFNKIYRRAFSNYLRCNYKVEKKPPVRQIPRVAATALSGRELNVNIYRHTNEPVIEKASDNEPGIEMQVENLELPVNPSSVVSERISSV

[8] = target: 5-hydroxytryptamine receptor 1B (Homo sapiens, UniProt P28222); assay: Binding affinity to human cloned 5-hydroxytryptamine 1B receptor in CHO cells using [3H]5-HT as radioligand; type: cell-based
[9] = Selectivity ratio as antilogarithm of smallest difference between the pKi value at 5-HT6 receptor and range of comparator receptors
[10] = target: T1, 5-hydroxytryptamine receptor 6; assay: Binding affinity to human cloned 5-HT6 receptor in HeLa cells using [3H]- LSD as radioligand; type: cell-based
[11] = target: D(3) dopamine receptor (Homo sapiens, UniProt P35462); assay: Binding affinity to human cloned Dopamine receptor D3 in CHO cells using [125I]- iodosulpride as radioligand; type: cell-based
[12] = target: 5-hydroxytryptamine receptor 2B (Homo sapiens, UniProt P41595); assay: Binding affinity to human cloned 5-HT2B receptor in HEK 293 cells using [3H]- -5-HT as radioligand; type: cell-based, HEK293
[13] = target: T1, 5-hydroxytryptamine receptor 6; assay: Binding affinity to human cloned 5-hydroxytryptamine 6 receptor in HeLa cells using [3H]- LSD as radioligand; type: cell-based

Chain of D(2) dopamine receptor (P14416 whole entry): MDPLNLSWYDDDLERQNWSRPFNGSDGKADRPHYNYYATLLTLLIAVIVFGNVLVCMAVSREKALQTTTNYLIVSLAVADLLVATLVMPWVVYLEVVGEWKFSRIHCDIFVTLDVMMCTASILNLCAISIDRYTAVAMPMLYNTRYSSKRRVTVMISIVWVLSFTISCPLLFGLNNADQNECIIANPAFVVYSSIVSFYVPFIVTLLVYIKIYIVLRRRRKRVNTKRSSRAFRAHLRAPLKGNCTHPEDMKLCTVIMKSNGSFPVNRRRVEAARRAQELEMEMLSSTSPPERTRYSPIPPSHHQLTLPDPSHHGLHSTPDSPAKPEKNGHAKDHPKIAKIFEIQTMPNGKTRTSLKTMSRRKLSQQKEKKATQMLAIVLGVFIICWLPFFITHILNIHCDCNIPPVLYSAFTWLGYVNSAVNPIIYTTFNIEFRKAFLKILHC
T1 sequence (P50406 whole entry): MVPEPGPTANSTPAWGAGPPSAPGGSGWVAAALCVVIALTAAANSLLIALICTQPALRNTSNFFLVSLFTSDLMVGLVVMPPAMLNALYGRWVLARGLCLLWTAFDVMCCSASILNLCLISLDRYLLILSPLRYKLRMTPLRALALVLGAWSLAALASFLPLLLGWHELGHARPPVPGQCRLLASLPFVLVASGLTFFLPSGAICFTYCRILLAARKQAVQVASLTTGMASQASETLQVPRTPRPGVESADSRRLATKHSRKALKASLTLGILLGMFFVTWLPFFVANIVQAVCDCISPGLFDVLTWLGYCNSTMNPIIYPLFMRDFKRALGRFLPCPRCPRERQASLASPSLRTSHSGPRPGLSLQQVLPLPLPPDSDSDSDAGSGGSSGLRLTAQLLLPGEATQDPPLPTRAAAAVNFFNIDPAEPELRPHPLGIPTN
Chain of D(3) dopamine receptor (P35462 whole entry): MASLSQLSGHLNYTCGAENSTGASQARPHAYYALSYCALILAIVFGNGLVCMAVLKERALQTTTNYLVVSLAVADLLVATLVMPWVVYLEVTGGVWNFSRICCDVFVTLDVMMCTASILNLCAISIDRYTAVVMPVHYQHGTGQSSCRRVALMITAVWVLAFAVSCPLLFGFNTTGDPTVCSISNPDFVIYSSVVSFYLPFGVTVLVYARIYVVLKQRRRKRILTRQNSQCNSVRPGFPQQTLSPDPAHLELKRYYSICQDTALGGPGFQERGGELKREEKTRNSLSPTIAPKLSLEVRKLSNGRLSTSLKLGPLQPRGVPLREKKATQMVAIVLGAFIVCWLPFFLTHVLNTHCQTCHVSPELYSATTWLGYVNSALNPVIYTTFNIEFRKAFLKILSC
Chain of 5-hydroxytryptamine receptor 2B (P41595 whole entry): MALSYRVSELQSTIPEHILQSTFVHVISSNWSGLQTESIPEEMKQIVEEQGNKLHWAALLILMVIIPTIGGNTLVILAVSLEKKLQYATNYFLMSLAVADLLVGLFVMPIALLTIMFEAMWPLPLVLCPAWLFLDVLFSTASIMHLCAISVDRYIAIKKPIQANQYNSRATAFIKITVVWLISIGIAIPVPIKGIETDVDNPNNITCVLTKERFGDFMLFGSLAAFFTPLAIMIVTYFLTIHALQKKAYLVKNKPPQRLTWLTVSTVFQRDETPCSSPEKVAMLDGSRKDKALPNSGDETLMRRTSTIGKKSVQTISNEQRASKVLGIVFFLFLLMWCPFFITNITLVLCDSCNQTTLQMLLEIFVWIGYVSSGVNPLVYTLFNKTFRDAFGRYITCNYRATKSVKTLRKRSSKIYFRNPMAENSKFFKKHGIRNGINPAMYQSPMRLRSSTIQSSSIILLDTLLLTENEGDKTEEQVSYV
Chain of 5-hydroxytryptamine receptor 7 (P34969 whole entry): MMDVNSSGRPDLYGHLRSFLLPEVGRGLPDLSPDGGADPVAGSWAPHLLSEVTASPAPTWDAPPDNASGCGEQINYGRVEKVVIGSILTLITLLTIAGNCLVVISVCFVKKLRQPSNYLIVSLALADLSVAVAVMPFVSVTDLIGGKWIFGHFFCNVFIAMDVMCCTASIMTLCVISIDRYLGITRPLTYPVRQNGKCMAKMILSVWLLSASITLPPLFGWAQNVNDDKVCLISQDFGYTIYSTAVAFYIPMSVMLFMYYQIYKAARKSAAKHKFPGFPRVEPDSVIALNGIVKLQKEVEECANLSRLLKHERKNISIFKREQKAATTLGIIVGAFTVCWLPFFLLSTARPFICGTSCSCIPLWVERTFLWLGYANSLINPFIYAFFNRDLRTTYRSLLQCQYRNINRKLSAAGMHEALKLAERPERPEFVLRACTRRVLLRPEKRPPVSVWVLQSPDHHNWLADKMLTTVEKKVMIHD
Chain of 5-hydroxytryptamine receptor 2A (P28223 whole entry): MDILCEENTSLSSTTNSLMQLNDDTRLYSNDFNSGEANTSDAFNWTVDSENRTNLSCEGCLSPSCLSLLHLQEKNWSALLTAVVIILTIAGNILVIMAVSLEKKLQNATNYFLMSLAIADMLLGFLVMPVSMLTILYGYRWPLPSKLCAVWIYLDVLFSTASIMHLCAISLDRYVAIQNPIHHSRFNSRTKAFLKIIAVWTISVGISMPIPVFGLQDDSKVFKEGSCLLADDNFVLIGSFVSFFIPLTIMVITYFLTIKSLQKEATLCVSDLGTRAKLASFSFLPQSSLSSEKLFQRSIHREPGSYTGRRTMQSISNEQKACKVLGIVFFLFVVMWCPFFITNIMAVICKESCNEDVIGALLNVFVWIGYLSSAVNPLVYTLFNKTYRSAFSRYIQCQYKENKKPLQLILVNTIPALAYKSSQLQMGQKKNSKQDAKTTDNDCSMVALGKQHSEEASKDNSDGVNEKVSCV
Chain of 5-hydroxytryptamine receptor 1D (P28221 whole entry): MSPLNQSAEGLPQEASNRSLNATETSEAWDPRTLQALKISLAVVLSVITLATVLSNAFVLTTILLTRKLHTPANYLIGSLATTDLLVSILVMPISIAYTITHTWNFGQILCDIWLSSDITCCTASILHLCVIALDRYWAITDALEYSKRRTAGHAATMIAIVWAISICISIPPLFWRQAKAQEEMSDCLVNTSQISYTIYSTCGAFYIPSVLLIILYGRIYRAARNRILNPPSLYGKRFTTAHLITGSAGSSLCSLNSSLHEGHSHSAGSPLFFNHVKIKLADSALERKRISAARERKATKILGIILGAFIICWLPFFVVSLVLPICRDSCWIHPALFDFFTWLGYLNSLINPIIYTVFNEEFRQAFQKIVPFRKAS
Chain of 5-hydroxytryptamine receptor 1B (P28222 whole entry): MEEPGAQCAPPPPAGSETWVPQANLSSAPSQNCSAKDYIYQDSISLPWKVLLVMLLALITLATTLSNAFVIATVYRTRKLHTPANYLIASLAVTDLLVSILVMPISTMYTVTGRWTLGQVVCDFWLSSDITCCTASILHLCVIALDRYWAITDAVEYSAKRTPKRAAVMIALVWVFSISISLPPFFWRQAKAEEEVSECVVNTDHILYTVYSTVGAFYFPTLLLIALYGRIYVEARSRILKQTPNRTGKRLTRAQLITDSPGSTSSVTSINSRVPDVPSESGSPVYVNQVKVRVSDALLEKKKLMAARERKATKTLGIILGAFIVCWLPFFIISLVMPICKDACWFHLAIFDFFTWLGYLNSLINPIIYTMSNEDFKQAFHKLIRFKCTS

Row | Structure (SMILES) | Ki [1] [nM] | Ki [2] [nM] | Ki [3] [nM] | Ki [4] [nM] | Ki [5] [nM] | Ki [6] [nM] | Ki [7] [nM] | Ki [8] [nM] | Selectivity ratio [9] | Ki [10] [nM] | Ki [11] [nM] | Ki [12] [nM] | Ki [13] [nM]
1 | O=S(=O)(Nc1ccc2nccc(N3CCNCC3)c2c1)c1cc(Cl)cc(Cl)c1 | 25.1 |  |  |  |  |  |  |  |  |  |  |  | 
2 | Cc1c(S(=O)(=O)Nc2ccc3nccc(N4CCN(C)CC4)c3c2)sc2ccc(Cl)cc12 | 1 | > 7940 | 1000 | 251 | 794 | 2000 | > 5010 | 501 | 250 | 1 | > 3980 | > 10000 | 
3 | Cc1sc2c(Cl)cccc2c1S(=O)(=O)Nc1ccc2nccc(N3CCNCC3)c2c1 | 2 |  |  |  |  |  |  |  | 130 |  |  |  | 
4 | O=S(=O)(Nc1ccc2nccc(N3CCNCC3)c2c1)c1cccc2c(Cl)cccc12 | 3.16 |  |  |  |  |  |  |  | 80 |  |  |  | 
5 | Cc1c(S(=O)(=O)Nc2ccc3nccc(N4CCNCC4)c3c2)sc2ccc(Cl)cc12 | 2 | > 10000 | > 2510 | 631 | 1000 | > 7940 | > 2510 | 2000 | 320 | 2 | > 1580 | > 5010 | 
6 | O=S(=O)(Nc1ccc2nccc(N3CCNCC3)c2c1)c1ccc2c(Cl)cccc2c1 | 1 | > 5010 | 1000 | 200 | 158 | 2510 | > 2510 | 631 | 160 | 1 | 2510 | > 5010 | 
7 | CCc1c(S(=O)(=O)Nc2ccc3nccc(N4CCNCC4)c3c2)sc2ccc(Cl)cc12 | 1.26 | > 1000 | > 1260 | 2510 | > 3980 | > 5010 | 1260 | 3160 | 1000 | 1.26 | > 10000 | > 3980 | 
8 | CC(C)c1c(S(=O)(=O)Nc2ccc3nccc(N4CCNCC4)c3c2)sc2ccc(Cl)cc12 | 1.58 |  |  |  |  |  |  |  | 160 |  |  |  | 
9 | Cc1cc(N2CCNCC2)c2cc(NS(=O)(=O)c3sc4ccc(Cl)cc4c3C)ccc2n1 | 1.26 | > 6310 | > 2000 | 316 | 794 | > 5010 | 2510 | 1260 | 250 | 1.26 | > 1000 | > 7940 | 
10 | Cc1c(S(=O)(=O)Nc2ccc3nccc(N4C[C@@H](C)NC[C@@H]4C)c3c2)sc2ccc(Cl)cc12 | 31.6 |  |  |  |  |  |  |  |  |  |  |  | 
11 | Cc1c(S(=O)(=O)Nc2ccc3nccc(N4CCNCC4)c3c2)oc2ccc(Cl)cc12 | 3.98 |  |  |  |  |  |  |  | 200 |  |  |  | 
12 | Cc1c(S(=O)(=O)Nc2ccc3ncc(N4CCN(C)CC4)cc3c2)sc2ccc(Cl)cc12 | 79.4 |  |  |  |  |  |  |  |  |  |  |  | 
13 | O=S(=O)(Nc1ccc2nccc(N3CCNCC3)c2c1)c1ccc(I)cc1 | 1.58 |  |  |  |  |  |  |  | 100 |  |  |  | 
14 | Cc1c(S(=O)(=O)Nc2ccc3nccc(N4CCN[C@@H](C)C4)c3c2)sc2ccc(Cl)cc12 | 1.26 | > 3160 | > 2510 | 398 | 1000 | > 5010 | > 3980 | 2510 | 320 | 1.26 | > 2000 | > 6310 | 
15 | Cc1c(S(=O)(=O)Nc2ccc3nccc(N4C[C@@H](C)N[C@@H](C)C4)c3c2)sc2ccc(Cl)cc12 | 5.01 |  |  |  |  |  |  |  | 160 |  |  |  | 
16 | O=S(=O)(Nc1ccc2nccc(N3CCNCC3)c2c1)c1ccc(-c2ccccc2)cc1 | 0.501 | > 5010 | 501 | 158 | 631 | > 10000 |  | 316 | 320 | 0.501 | > 3160 | > 7940 | 
17 | Cc1c(S(=O)(=O)Nc2ccc3nccc(N4CCNCC4)c3c2)sc2c(Cl)cc(Cl)cc12 | 6.31 |  |  |  |  |  |  |  | 25 |  |  |  | 
18 | Cc1sc2cc(Cl)cc(Cl)c2c1S(=O)(=O)Nc1ccc2nccc(N3CCNCC3)c2c1 | 7.94 |  |  |  |  |  |  |  | 40 |  |  |  | 
19 | CC(C)(C)c1ccc(S(=O)(=O)Nc2ccc3nccc(N4CCNCC4)c3c2)cc1 | 0.631 | > 10000 | > 3160 | 1260 | 794 | > 10000 | > 2000 | 1580 | 1260 |  | > 5010 | > 5010 | 0.631
20 | Cc1cnc2ccc(NS(=O)(=O)c3sc4ccc(Cl)cc4c3C)cc2c1N1CCNCC1 | 2.51 |  |  |  |  |  |  |  | 100 |  |  |  | 
21 | Cc1c(S(=O)(=O)Nc2ccc3nccc(N4CCN[C@H](C)C4)c3c2)sc2ccc(Cl)cc12 | 2 |  |  |  |  |  |  |  | 3200 |  |  |  | 
22 | Cc1sc2ccc(Cl)cc2c1S(=O)(=O)Nc1ccc2nccc(N3CCNCC3)c2c1 | 1 | > 3980 | > 2000 | 398 | 251 | 1580 | 1260 | 501 | 250 | 1 | > 1580 | 1260 | 
23 | Cc1c(S(=O)(=O)Nc2ccc3nccc(N4CCN5CCC[C@H]5C4)c3c2)sc2ccc(Cl)cc12 | 2 |  |  |  |  |  |  |  | 130 |  |  |  | 
24 | Cc1c(S(=O)(=O)Nc2ccc3nccc(N4CCN[C@H](C(C)C)C4)c3c2)sc2ccc(Cl)cc12 | 20 |  |  |  |  |  |  |  |  |  |  |  | 
25 | Cc1sc2c(Cl)cc(Cl)cc2c1S(=O)(=O)Nc1ccc2nccc(N3CCNCC3)c2c1 | 2 |  |  |  |  |  |  |  | 200 |  |  |  | 
26 | Cc1cc(S(=O)(=O)Nc2ccc3nccc(N4CCNCC4)c3c2)c(C)cc1Cl | 1.26 |  |  |  |  |  |  |  | 500 |  |  |  | 

— ChEMBL document CHEMBL1134724, “Novel (4-piperazin-1-ylquinolin-6-yl) arylsulfonamides with high affinity and selectivity for the 5-HT(6) receptor” (Bioorg Med Chem Lett, 2001)
